Measured values published in ChEMBL document CHEMBL4828750, “Structure-activity relationships of agonists for the orphan G protein-coupled receptor GPR27” (Eur J Med Chem, 2021).

What follows are compounds tested against T1, Probable G-protein coupled receptor 27 (Homo sapiens, UniProt Q9NS67) (assay: Agonist activity at human GPR27 expressed in HEK293 cells co-expressing FnLArrb2.GPR27V2LFc assessed as induction of beta-arrestin recruitment incubated for 10 mins measured followed by addition of D-luciferin by firefly-luciferase complementation assay). Conditions: not given.
Format: functional, cell-based

T1 sequence (Q9NS67 whole entry): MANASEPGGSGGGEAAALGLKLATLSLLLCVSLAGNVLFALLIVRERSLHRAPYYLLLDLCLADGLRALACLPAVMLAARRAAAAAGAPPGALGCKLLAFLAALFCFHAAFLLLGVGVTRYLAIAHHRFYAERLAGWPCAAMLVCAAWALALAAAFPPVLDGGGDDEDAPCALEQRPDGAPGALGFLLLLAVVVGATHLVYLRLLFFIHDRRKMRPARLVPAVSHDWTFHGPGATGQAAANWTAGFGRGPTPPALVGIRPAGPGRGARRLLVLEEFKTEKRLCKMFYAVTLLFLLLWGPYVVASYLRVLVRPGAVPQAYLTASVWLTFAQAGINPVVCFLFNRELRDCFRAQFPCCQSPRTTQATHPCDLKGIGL

Cc1cc(Cl)ccc1C(=O)Nc1ccc(S(=O)(=O)Nc2ccccc2)cc1 and O=C(Nc1ccc(S(=O)(=O)Nc2ccccc2)cc1)c1ccc(Cl)cc1Br are within 1.5-fold of each other in EC50: 912 nM for the first, 1020 nM for the second.

Cc1ccc(NS(=O)(=O)c2ccc(NC(=O)c3ccc(Cl)cc3Cl)cc2)cc1 and O=C(Nc1ccc(S(=O)(=O)Nc2ccc(Cl)cc2)cc1)c1ccc(Cl)cc1Cl cannot be ordered by EC50: > 100000 nM for the first, > 100000 nM for the second.

Compared with O=C(Nc1ccc(S(=O)(=O)Nc2ccccc2)cc1)c1ccc(C(F)(F)F)cc1F, O=C(Nc1ccc(S(=O)(=O)Nc2ccccc2)cc1)c1ccc(Cl)cc1F is 11-fold higher in EC50: 363 nM for the first, 3980 nM for the second.

Going from O=C(Nc1ccc(S(=O)(=O)Nc2ccccc2)cc1)c1ccc(Cl)nc1F to O=C(Nc1ccc(S(=O)(=O)Nc2ccccc2)cc1)c1ccc(Cl)cc1Cl, the EC50 falls from 2290 nM to 457 nM (5-fold).

O=C(Nc1ccc(S(=O)(=O)Nc2ccccc2Cl)cc1)c1ccc(Cl)cc1Cl and Cc1ccccc1NS(=O)(=O)c1ccc(NC(=O)c2ccc(Cl)cc2Cl)cc1 are within 1.5-fold of each other in EC50: 1260 nM for the first, 1230 nM for the second.

Going from N#Cc1ccc(C(=O)Nc2ccc(S(=O)(=O)Nc3ccccc3)cc2)c(F)c1 to O=C(Nc1ccc(S(=O)(=O)Nc2ccccc2)cc1)c1ccc(I)cc1F, the EC50 rises from 229 nM to 5130 nM (22-fold). The first is the more potent here.

First: CN(c1ccccc1)S(=O)(=O)c1ccc(NC(=O)c2ccc(Cl)cc2Cl)cc1
Second: O=C(Nc1ccc(S(=O)(=O)NCc2ccccc2)cc1)c1ccc(Cl)cc1Cl
The EC50 of the first is lower: 2570 nM for the first, > 100000 nM for the second.

First: O=C(Nc1ccc(S(=O)(=O)Nc2ncccn2)cc1)c1ccc(Cl)cc1Cl
Second: O=C(Nc1ccc(S(=O)(=O)Nc2ccccn2)cc1)c1ccc(Cl)cc1Cl
The EC50 of the first is higher: > 100000 nM for the first, 3020 nM for the second. The second is the more potent here.

Going from Cc1cc(Br)ccc1C(=O)Nc1ccc(S(=O)(=O)Nc2ccccc2)cc1 to O=C(Nc1ccc(S(=O)(=O)Nc2ccccc2)cc1)c1ccc(Br)cc1F, the EC50 falls from 851 nM to 479 nM (1.8-fold). The second is the more potent here.

O=S(=O)(Nc1ccccc1)c1ccc(NS(=O)(=O)c2ccc(Cl)cc2Cl)cc1 and O=C(Cc1ccc(Cl)cc1Cl)Nc1ccc(S(=O)(=O)Nc2ccccc2)cc1 cannot be ordered by EC50: > 100000 nM for the first, > 100000 nM for the second.

Compared with O=C(Nc1cccc(S(=O)(=O)Nc2ccccc2)c1)c1ccc(Cl)cc1Cl, O=C(Nc1ccc(S(=O)(=O)Nc2cccc(Cl)c2)cc1)c1ccc(Cl)cc1Cl is lower in EC50: > 100000 nM for the first, 575 nM for the second. The second is the more potent here.

First: O=C(Nc1ccc(S(=O)(=O)Nc2ccccc2)cc1)c1ncc(Cl)cc1Cl
Second: O=C(Nc1ccc(S(=O)(=O)Nc2ccccc2)cc1)c1cc(F)c(Cl)cc1F
The EC50 of the first is 41-fold higher: 5750 nM for the first, 141 nM for the second. The second is the more potent here.

O=C(Nc1ccc(S(=O)(=O)Nc2ccccc2)cc1)c1ccc2ccccc2c1 and O=C(Nc1ccc(S(=O)(=O)Nc2ccccc2)cc1)c1cc2ccccc2oc1=O are within 1.5-fold of each other in EC50: 8510 nM for the first, 7760 nM for the second.

O=C(Nc1ccc(Cl)cc1Cl)c1ccc(S(=O)(=O)Nc2ccccc2)cc1 and O=C(NS(=O)(=O)c1ccc(NC(=O)c2ccc(Cl)cc2Cl)cc1)c1ccccc1 cannot be ordered by EC50: > 100000 nM for the first, > 100000 nM for the second.

Going from COc1cc(Br)ccc1C(=O)Nc1ccc(S(=O)(=O)Nc2ccccc2)cc1 to COc1ccc(NS(=O)(=O)c2ccc(NC(=O)c3ccc(Cl)cc3Cl)cc2)cc1, the EC50 rises from 1020 nM to > 100000 nM. The first is the more potent here.

In the case of O=C(Nc1ccccc1)c1ccc(NC(=O)c2ccc(Cl)cc2Cl)cc1, the EC50 is reported as > 10000 nM.

The compounds below were run on HEK293 (assay: Cytotoxicity against human HEK293 cells expressing FnLArrb2.GPR27V2LFc up to 33.3 uM incubated for 10 mins by MTT assay). Conditions: hek293, 10 min.
Format: cell-based

Cc1cc(Cl)ccc1C(=O)Nc1ccc(S(=O)(=O)Nc2ccccc2)cc1 was tested, and the Activity was “Non-Toxic”.
For O=C(Nc1ccc(S(=O)(=O)Nc2ccccc2)cc1)c1ccc(C(F)(F)F)cc1F, the Activity was “Non-Toxic”.
With Cc1cc(Br)ccc1C(=O)Nc1ccc(S(=O)(=O)Nc2ccccc2)cc1 the Activity was “Non-Toxic”.
In the case of O=C(Nc1ccc(S(=O)(=O)Nc2ccccc2)cc1)c1ccc(Cl)cc1Cl, the Activity is reported as “Non-Toxic”.

The compounds below were run against T1, Probable G-protein coupled receptor 27 (assay: Agonist activity at human GPR27 expressed in HEK293 cells assessed as induction of beta-arrestin recruitment pretreated with substrate for 45 mins followed by compound addition and measured for 40 mins by NanoLuc luciferase complementation assay). Conditions: not given.
Format: functional, cell-based

In order of rising EC50:
1. O=C(Nc1ccc(S(=O)(=O)Nc2ccccc2)cc1)c1ccc(Cl)cc1Cl  912 nM
2. O=C(Nc1ccc(S(=O)(=O)Nc2nccs2)cc1)c1ccc(Cl)cc1Cl  1300 nM
